Reference: EP4574818A1, “ONIUM SALT OF NITROGEN-CONTAINING HETEROARYL COMPOUND AND PEST CONTROL AGENT” (priority 2022, dated 2024)

Columns and labels:
Assay type in all cases: in vivo
Mythimna separata = test: Efficacy test against Mythimna separata (treated artificial feed); conditions: 1 µl of emulsion (I) (5% by mass active ingredient) mixed with 0.8 g artificial feed; second-instar larvae; 25°C; after five days
Experimental: (§1) 5 parts by mass of a compound of the present invention, 93.6 parts by mass of dimethylformamide, and 1.4 parts by mass of polyoxyethylene alkyl aryl ether were mixed and dissolved to obtain an emulsion (I) containing 5% by mass of the active ingredient.
0.8 g of commercially-available artificial feed (Insect LFS, manufactured by Nosan Corporation) and 1 µl of the emulsion (I) were mixed well, and then 0.2 g of the mixture per treated area was packed into plastic test containers (each having a capacity of 1.4 ml) as test feeds.
Two second-instar larvae of Mythimna separata were left per treated area, and then the test containers were sealed with plastic covers. The test containers were placed in a thermostatic chamber at 25°C, and, after five days had passed therefrom, the mortality and the feed intake were measured. The test was repeated twice.
In addition, the test was carried out under the same conditions as described above, except that the emulsion (II) was used instead of the emulsion (I), and evaluated as a solvent control area.

Ctenocephalides felis = test: Efficacy test against Ctenocephalides felis (thin film in glass vial); conditions: 96 h, 100 µL of 16 ppm by mass isopropanol solution dried as thin film in glass vial, adults, 25°C, after four days
Experimental: The compound of the present invention was dissolved in isopropanol to prepare a drug solution having a concentration of 16 ppm by mass. 100 µL of the drug solution was coated on the inner surface of the bottom of a glass vial container (φ […]), and then isopropanol was vaporized by air-drying to form a thin film of the compound of the present invention. In the vial container, four adults (a mixture of males and females) of cat flea (Ctenocephalides felis) were left. The lid was put on the vial container, and the vial container was placed in a thermostatic chamber at 25°C. After four days had passed from leaving the adults, life or death of Ctenocephalides felis was assessed and the mortality was calculated.

Spodoptera litura = test: Efficacy test against Spodoptera litura (cabbage leaf immersion); conditions: 144 h, 125 ppm by mass, cabbage leaf immersed 30 seconds, second-instar larvae, 25°C, humidity 60%, after six days, read-out: mortality of Spodoptera litura
Experimental: A cabbage leaf was immersed in the diluted solution for 30 seconds. The cabbage leaf was air-dried and then put in a petri dish, followed by leaving five second-instar larvae of Spodoptera litura therein. The petri dish was placed in a thermostatic chamber at a temperature of 25°C and a humidity of 60%. After six days had passed from leaving the larvae, life or death was assessed and the mortality was calculated. The test was repeated twice.

Phyllotreta striolata = test: Efficacy test against Phyllotreta striolata (sprayed bok-choy seedling); conditions: 168 h, 125 ppm by mass, sprayed to bok-choy seedling, adults, 25°C, humidity 65%, after seven days, read-out: mortality against the adults of Phyllotreta striolata
Experimental: as §1
The emulsion (I) was diluted with water such that the concentration of the compound of the present invention became 125 ppm by mass. The diluted solution was sprayed to a bok-choy seedling (at the 7th leafe stage) planted in a 3-sun pot. After air-dried, the bok-choy seedling was placed in a plastic cup, and ten adults of Phyllotreta striolata were left therein. The plastic cup was placed in a thermostatic chamber at a temperature of 25°C and a humidity of 65%. After seven days had passed from leaving the adults, life or death was assessed and the mortality was calculated. The test was repeated twice.

Plutella xylostella = test: Efficacy test against Plutella xylostella (cabbage leaf immersion); conditions: 72 h; 125 ppm by mass; cabbage leaf immersed 30 seconds; second-instar larvae of Plutella xylostella; 25°C, humidity 60%; after three days; read-out: mortality
Experimental: The emulsion (II) was diluted with water at the same dilution ratio as the diluted solution (I), thereby obtaining a diluted solution (II). A cabbage leaf was immersed in each of the diluted solutions for 30 seconds. Each cabbage leaf after immersion was air-dried and then put in a petri dish, followed by leaving five second-instar larvae of Plutella xylostella therein. The petri dishes were placed in a thermostatic chamber at a temperature of 25°C and a humidity of 60%. After three days had passed from leaving the larvae, life or death was assessed and the mortality was calculated. The test was repeated twice.

[1] = test system: Haemophysalis longicornis; test: Efficacy test against Haemophysalis longicornis (thin film in glass test tube); conditions: 100 µL of 16 ppm by mass isopropanol solution dried as thin film in glass test tube; nymphs; 25°C; after four days; 5760 min
Experimental: The compound of the present invention was dissolved in isopropanol to prepare a drug solution having a concentration of 16 ppm by mass. 100 µL of the drug solution was coated on the inner surface of the bottom of a glass test tube (φ 12 mm), and then isopropanol was vaporized by air-drying to form a thin film of the compound of the present invention. In the test tube, four nymphs of Haemophysalis longicornis were left. The lid was put on the test tube, and the test tube was placed in a thermostatic chamber at 25°C. After four days had passed from leaving the nymphs, life or death of Haemophysalis longicornis was assessed and the mortality was calculated.

| SMILES | mortality of Mythimna separata or feed intake relative to the feed intake at the solvent control area (Mythimna separata) | mortality at 16 ppm (Ctenocephalides felis) [%] | mortality at 125 ppm (Spodoptera litura) [%] | mortality at 125 ppm (Phyllotreta striolata) [%] | mortality at 125 ppm (Plutella xylostella) [%] | mortality against Haemophysalis longicornis [1] [%] |
| --- | --- | --- | --- | --- | --- | --- |
| O=C([N-][n+]1cccc(F)c1)c1cc(Cl)nc(Oc2ccc(OC(F)(F)F)cc2)c1 [Compound 1] | 100% mortality of Mythimna separata or 10% or less of the feed intake | ≥ 80 | ≥ 80 | ≥ 80 | ≥ 80 |  |
| O=C([N-][n+]1ccccc1)c1cc(Cl)nc(Oc2ccc(OC(F)(F)C(F)(F)F)cc2)c1 [Compound 3] | 100% mortality of Mythimna separata or 10% or less of the feed intake |  | ≥ 80 | ≥ 80 | ≥ 80 |  |
| O=C([N-][n+]1cccc(F)c1)c1cc(Cl)nc(Oc2ccc(OC(F)(F)C(F)(F)F)cc2)c1 [Compound 7] |  | ≥ 80 | ≥ 80 |  | ≥ 80 |  |
| CCn1c[n+]([N-]C(=O)c2cc(Cl)nc(Oc3ccc(OC(F)(F)C(F)(F)F)cc3)c2)cn1 [Compound 10] |  | ≥ 80 | ≥ 80 | ≥ 80 | ≥ 80 |  |
| O=C([N-][n+]1ccccc1)c1cc(Cl)nc(Oc2ccc(OC(F)(F)F)cc2)c1 [Compound 175, (2-chloro-6-(4-(trifluoromethoxy)phenoxy)isonicotinoyl)(pyridin-1-ium-1-yl)amide] | 100% mortality of Mythimna separata or 10% or less of the feed intake | ≥ 80 | ≥ 80 | ≥ 80 | ≥ 80 | ≥ 80 |
